According to patent publication US20250059182A1, “SOS1 INHIBITORS” (Mirati Therapeutics, Inc., priority 2021, published 2025):
Where a name gives a salt, the structure may show the parent alone. Read-outs that look alike come from different tables or passages of the source.

Legend:
[1] = target: T1, recombinant human SOS1 polypeptide (amino acids 560-1049) (Homo sapiens, UniProt Q07889); test: HTRF displacement assay: inhibition of labeled tracer binding to SOS1
T1 construct: corresponding to amino acids 560-1049, expressed in E. Coli; made in house; host or cells: E. coli
T1 sequence (Q07889 560-1049): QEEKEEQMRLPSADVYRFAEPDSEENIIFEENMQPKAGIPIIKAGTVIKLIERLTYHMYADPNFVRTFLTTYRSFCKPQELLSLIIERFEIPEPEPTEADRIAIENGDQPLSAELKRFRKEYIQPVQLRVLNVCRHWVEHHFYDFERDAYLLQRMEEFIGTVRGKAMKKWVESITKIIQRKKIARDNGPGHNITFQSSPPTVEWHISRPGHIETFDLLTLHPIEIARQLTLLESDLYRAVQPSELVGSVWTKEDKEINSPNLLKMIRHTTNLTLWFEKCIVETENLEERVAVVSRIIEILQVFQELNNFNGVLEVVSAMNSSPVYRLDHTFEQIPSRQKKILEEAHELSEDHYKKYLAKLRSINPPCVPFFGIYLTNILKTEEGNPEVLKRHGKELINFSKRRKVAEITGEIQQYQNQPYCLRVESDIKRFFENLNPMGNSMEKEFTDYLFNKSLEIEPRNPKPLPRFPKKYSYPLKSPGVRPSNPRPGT

pERK in MKN1 cells = test: pERK inhibition, In-Cell Western (LI-COR Odyssey), MKN1 cells; format: cell-based; details: MKN1 or H358 cells (table does not say which), 0.5-1 hour incubation, read-out: IC50 (nM), pERK inhibition
Method: This Example illustrates that exemplary compounds of the present invention prevent KRas-mediated GTP nucleotide exchange mediated by SOS1 to inhibit KRas activity thereby inhibiting the generation of the downstream effector pERK.
MKN1 cells (15,000/w) or H358 (30,000/w) were seeded in a black clear flat bottom 96-well cell culture plate (Corning, #3904) and incubated at 37° C. overnight. Assay day 1, cells were dosed with compounds of Formula (I) with a 10 μm starting concentration and serially diluted 3× for a total of 9 concentrations. The cells were incubated for approximately 0.5-1 hour with the compounds solubilized in DMSO at 37° C. Cells were immediately fixed by adding 50 μL of 4% formaldehyde to all wells in a fume hood and the plates were incubated for 20 minutes at room temperature. The formaldehyde was discarded from the plates and 150 μL of ice-cold methanol was added to permeabilize the cells for 10 minutes at −20° C. The methanol was discarded from each of the plates and any liquid remaining in the plate by tapping the plate against paper towels. Cells were then blocked with 150 μL of Odyssey blocking buffer (LI-COR Biosciences #927-50010) using 0.05% Tween for 1 hour at room temperature on a shaker. The blocking buffer was discarded and 50 μL of primary antibodies pERK (cell signaling Technology #9101L; Rabbit, 1:500) and GapDH (Millipore #MAB34; Mouse, 1:5000) diluted in Odyssey blocking buffer was added. The plates were incubated overnight at 4° C. on a shaker.
On Assay day 2, the primary antibody solution was removed. Each plate was washed 3× times with 150 μL of 1×PBST (PBS+0.1% Tween 20) and incubated with 50 μL of secondary antibodies: Anti-Rabbit (LI-COR Biosciences #926-32211) and Anti-Mouse (LI-COR Biosciences #68070) at 1:800 dilution in Odyssey blocking buffer with Tween at room temperature on a shaker for 2 hours (protected from light). The secondary antibody solution as removed and each plate was washed with PBST 3× times. Any liquid remaining was discarded and the plate was imaged using the Licor Odyssey machine according to the manufacturer's instruction, using a set focus length at 3 mm and both 800 nm and 700 nm filters. The GAPDH normalized scan values for each well were divided by the average of vehicle wells to get the % of pERK inhibition. The IC50 values were then calculated with the Graph pad Prism software.

[2] = Table A, Morrison equation for competitive binding
[3] = Table A1, Morrison equation for competitive binding

Cc1c(C#N)cccc1[C@@H](C)Nc1nnc(C)c2cnc(N3C[C@H]4CCCN[C@H]4C3)cc12 (single isomer, unassigned) [Example 6-3]
Ki [1, 2]: 0.992 nM
IC50 (pERK in MKN1 cells; Homo sapiens, MKN-1, Table B): 73 nM

Cc1c(C#N)cccc1[C@@H](C)Nc1nnc(C)c2cnc(N3C[C@@H]4CCCN[C@@H]4C3)cc12 (single isomer, unassigned) [Example 6-4]
Ki [1, 2]: 2.74 nM
IC50 (pERK in MKN1 cells; Homo sapiens, MKN-1, Table B): 194 nM

Cc1c(C#N)cccc1[C@@H](C)Nc1nnc(C)c2cnc(N3C[C@H]4CCCN(C)[C@H]4C3)cc12 (single isomer, unassigned) [Example 6-5]
Ki [1, 2]: 1.12 nM
IC50 (pERK in MKN1 cells; Homo sapiens, MKN-1, Table B): 85.2 nM

Cc1c(C#N)cccc1[C@@H](C)Nc1nnc(C)c2cnc(N3C[C@@H]4CCCN(C)[C@@H]4C3)cc12 (single isomer, unassigned) [Example 6-6]
Ki [1, 2]: 1.36 nM
IC50 (pERK in MKN1 cells; Homo sapiens, MKN-1, Table B): 80.6 nM

Cc1c(C#N)cccc1[C@@H](C)Nc1nnc(C)c2cnc(N3C[C@@H]4[C@H]3CCN4C)cc12 (single isomer, unassigned) [Example 6-8]
Ki [1, 2]: 0.808 nM
IC50 (pERK in MKN1 cells; Table B): 33.8 nM

Cc1c(C#N)cccc1[C@@H](C)Nc1nnc(C)c2cnc(N3C[C@H]4[C@@H]3CCN4C)cc12 (single isomer, unassigned) [Example 6-9]
Ki [1, 2]: 2.12 nM
IC50 (pERK in MKN1 cells; Table B): 69.4 nM

Cc1c(C#N)cccc1[C@@H](C)Nc1nnc(C)c2cnc(N3CC[C@@H]4[C@H]3CN4C)cc12 (single isomer, unassigned) [Example 6-10]
Ki [1, 2]: 0.872 nM
IC50 (pERK in MKN1 cells; Homo sapiens, MKN-1, Table B): 44.4 nM

Cc1c(C#N)cccc1[C@@H](C)Nc1nnc(C)c2cnc(N3CC[C@H]4[C@@H]3CN4C)cc12 (single isomer, unassigned) [Example 6-11]
Ki [1, 2]: 2.78 nM
IC50 (pERK in MKN1 cells; Homo sapiens, MKN-1, Table B): 199 nM

Cc1c(C#N)cccc1[C@@H](C)Nc1nnc(C)c2cnc(N3C[C@H]4[C@@H]3CCN4C)cc12 (single isomer, unassigned) [Example 6-12]
Ki [1, 2]: 0.24 nM
IC50 (pERK in MKN1 cells; Table B): 13.7 nM

Cc1c(C#N)cccc1[C@@H](C)Nc1nnc(C)c2cnc(N3C[C@@H]4[C@H]3CCN4C)cc12 (single isomer, unassigned) [Example 6-13]
Ki [1, 2]: 0.615 nM
IC50 (pERK in MKN1 cells; Table B): 16.3 nM

Cc1c(C#N)cccc1[C@@H](C)Nc1nnc(C)c2cc(F)c(N3C[C@H]4[C@@H]3CCN4C)cc12 (single isomer, unassigned) [Example 9-1]
Ki [1, 2]: 1 nM
IC50 (pERK in MKN1 cells; Homo sapiens, MKN-1, Table B): 15.5 nM

Cc1c(C#N)cccc1[C@@H](C)Nc1nnc(C)c2cc(F)c(N3C[C@@H]4[C@H]3CCN4C)cc12 (single isomer, unassigned) [Example 9-2]
Ki [1, 2]: 2 nM
IC50 (pERK in MKN1 cells; Homo sapiens, MKN-1, Table B): 30 nM

CCN(c1cc2c(N[C@H](C)c3cccc(C#N)c3C)nnc(C)c2cn1)C1CCN(C)C1 (stereo in doubt) [Example 1-104, 3-((R)-1-((7-(ethyl((S)-1-methylpyrrolidin-3-yl)amino)-4-methylpyrido[3,4-d]pyridazin-1-yl)amino)ethyl)-2-methylbenzonitrile]
Ki [1, 2]: 0.901 nM
IC50 (pERK in MKN1 cells; Table B): 75.5 nM

Cc1c(C#N)cccc1[C@@H](C)Nc1nnc(C)c2cnc(N3CC(C)(N4CCC4)C3)cc12 [Example 1-1, (R)-2-methyl-3-(1-((4-methyl-7-(3′-methyl-[1,3′-biazetidin]-1′-yl)pyrido[3,4-d]pyridazin-1-yl)amino)ethyl)benzonitrile]
Ki [1, 2]: 1.59 nM
IC50 (pERK in MKN1 cells; Homo sapiens, MKN-1, Table B): 104 nM

CCN(CC)C1(C)CN(c2cc3c(N[C@H](C)c4cccc(C#N)c4C)nnc(C)c3cn2)C1 [Example 1-2, (R)-3-(1-((7-(3-(diethylamino)-3-methylazetidin-1-yl)-4-methylpyrido[3,4-d]pyridazin-1-yl)amino)ethyl)-2-methylbenzonitrile]
Ki [1, 2]: 2.22 nM
IC50 (pERK in MKN1 cells; Homo sapiens, MKN-1, Table B): 126 nM

CN[C@H]1CCN(c2cc3c(N[C@H](C)c4cccc(C#N)c4C)nnc(C)c3cn2)C1 [Example 1-3, 2-methyl-3-((R)-1-((4-methyl-7-((S)-3-(methylamino)pyrrolidin-1-yl)pyrido[3,4-d]pyridazin-1-yl)amino)ethyl)benzonitrile]
Ki [1, 2]: 1.42 nM
IC50 (pERK in MKN1 cells; Homo sapiens, MKN-1, Table B): 95.1 nM

Cc1c(C#N)cccc1[C@@H](C)Nc1nnc(C)c2cnc(N3CC(C)(N4CCCC4)C3)cc12 [Example 1-4, (R)-2-methyl-3-(1-((4-methyl-7-(3-methyl-3-(pyrrolidin-1-yl)azetidin-1-yl)pyrido[3,4-d]pyridazin-1-yl)amino)ethyl)benzonitrile]
Ki [1, 2]: 1.22 nM
IC50 (pERK in MKN1 cells; Homo sapiens, MKN-1, Table B): 62.6 nM

Cc1nnc(N[C@H](C)c2cccc(C(F)F)c2F)c2cc(N3CCN(C)CC3)c(C#N)cc12 [Example 6-22, (R)-1-((1-(3-(difluoromethyl)-2-fluorophenyl)ethyl)amino)-4-methyl-7-(4-methylpiperazin-1-yl)phthalazine-6-carbonitrile]
Ki [1, 2]: 1.49 nM

Cc1c(C#N)cccc1[C@@H](C)Nc1nnc(C)c2cc(Br)c(N3CCN(C)CC3)cc12 [Example 8-1, (R)-3-(1-((6-bromo-4-methyl-7-(4-methylpiperazin-1-yl)phthalazin-1-yl)amino)ethyl)-2-methylbenzonitrile]
Ki [1, 2]: 2.4 nM

Cc1c(C#N)cccc1[C@@H](C)Nc1nnc(CO)c2cnc(N3CCOCC3)cc12 [Example P-201, (R)-3-(1-((4-(hydroxymethyl)-7-morpholinopyrido[3,4-d]pyridazin-1-yl)amino)ethyl)-2-methylbenzonitrile formic acid salt]
Ki [1, 3]: 6.36 nM

Cc1c(C#N)cccc1[C@@H](C)Nc1nnc(C=O)c2cnc(N3CCOCC3)cc12 [Example P-202, (R)-3-(1-((4-formyl-7-morpholinopyrido[3,4-d]pyridazin-1-yl)amino)ethyl)-2-methylbenzonitrile]
Ki [1, 3]: 49.7 nM

Cc1c(C#N)cccc1[C@@H](C)Nc1nnc(C)c2cnc(N3CCOC(=O)C3)cc12 [Example P-203, (R)-2-methyl-3-(1-((4-methyl-7-(2-oxomorpholino)pyrido[3,4-d]pyridazin-1-yl)amino)ethyl)benzonitrile]
Ki [1, 3]: 26.1 nM

Cc1c(C#N)cccc1[C@@H](C)Nc1nnc(C)c2cnc(N3CCOCC3=O)cc12 [Example P-204, (R)-2-methyl-3-(1-((4-methyl-7-(3-oxomorpholino)pyrido[3,4-d]pyridazin-1-yl)amino)ethyl)benzonitrile]
Ki [1, 3]: 139 nM

Cc1c(C#N)cccc1[C@@H](C)Nc1nnc(C)c2cnc(OCCOCCN3C(=O)CCC(N4C(=O)c5cccc(O)c5C4=O)C3=O)cc12 (stereo partly drawn) [Example P-207, 3-((1R)-1-((7-(2-(2-(3-(4-hydroxy-1,3-dioxoisoindolin-2-yl)-2,6-dioxopiperidin-1-yl)ethoxy)ethoxy)-4-methylpyrido[3,4-d]pyridazin-1-yl)amino)ethyl)-2-methylbenzonitrile]
Ki [1, 3]: 865 nM

Cc1c(C#N)cccc1[C@@H](C)Nc1nnc(C)c2cnc(OCCOCCOc3cccc4c3C(=O)N(C3CCC(=O)NC3=O)C4=O)cc12 (stereo partly drawn) [Example P-208, 3-((1R)-1-((7-(2-(2-((2-(2,6-dioxopiperidin-3-yl)-1,3-dioxoisoindolin-4-yl)oxy)ethoxy)ethoxy)-4-methylpyrido[3,4-d]pyridazin-1-yl)amino)ethyl)-2-methylbenzonitrile]
Ki [1, 3]: 427 nM

Cc1c(C#N)cccc1[C@@H](C)Nc1nnc(C)c2cnc(OCCNC(=O)CCOC34CC5CC(CC(C5)C3)C4)cc12 [Example P-209, 3-(((3s,5s, 7s)-adamantan-1-yl)oxy)-N-(2-((1-(((R)-1-(3-cyano-2-methylphenyl)ethyl)amino)-4-methylpyrido[3,4-d]pyridazin-7-yl)oxy)ethyl)propanamide]
Ki [1, 3]: 542 nM
